Reference: PMC12300041, “Tricyclic Isatin Derivatives as Anti-Inflammatory Compounds with High Kinase Binding Affinity” (Molecules, 2025)

Tests used:
Assay in all cases: KINOMEscan
Type in all cases: binding
NDR2 = target: T1, NDR2 (Homo sapiens, UniProt Q9Y2H1)
T1 construct: purchased Eurofins DiscoverX KINOMEscan
Method in brief: (§1)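 Kd determination: 12-pt half-log series, top 33 μM; 1 h binding, RT; unbound kinase pulled down on immobilized ligand, measured by qPCR.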

SLK = target: T2, SLK (Homo sapiens, UniProt Q9H2G2)
T2 construct: purchased Eurofins DiscoverX KINOMEscan
Method in brief: (§2)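 Dissociation constants derive from a 12-point, half-log compound titration (highest 33 μM). Each binding reaction ran 1 h at room temperature before qPCR quantification of kinase captured on an immobilized affinity ligand.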

LIMK1 = target: T3, LIMK1 (Homo sapiens, UniProt P53667)
T3 construct: purchased Eurofins DiscoverX KINOMEscan
Method in brief: as §2

PRKCQ = target: T4, PRKCQ (Homo sapiens, UniProt Q04759)
T4 construct: purchased Eurofins DiscoverX KINOMEscan
Method in brief: as §2

PCTK3 = target: T5, PCTK3 (Homo sapiens, UniProt Q07002)
T5 construct: purchased Eurofins DiscoverX KINOMEscan
Method in brief: as §2

PFTK1 = target: T6, PFTK1 (Homo sapiens, UniProt O94921)
T6 construct: purchased Eurofins DiscoverX KINOMEscan
Method in brief: as §1

ARK5 = target: T7, ARK5 (Homo sapiens, UniProt O60285)
T7 construct: purchased Eurofins DiscoverX KINOMEscan
Method in brief: as §2

AXL = target: T8, AXL (Homo sapiens, UniProt P30530)
T8 construct: purchased Eurofins DiscoverX KINOMEscan
Method in brief: as §1

LATS1 = target: T9, LATS1 (Homo sapiens, UniProt O95835)
T9 construct: purchased Eurofins DiscoverX KINOMEscan
Method in brief: as §2

DMPK = target: T10, DMPK (Homo sapiens, UniProt Q09013)
T10 construct: purchased Eurofins DiscoverX KINOMEscan
Method in brief: as §1

STK35 = target: T11, STK35 (Homo sapiens, UniProt Q8TDR2)
T11 construct: purchased Eurofins DiscoverX KINOMEscan
Method in brief: as §1

FYN = target: T12, FYN (Homo sapiens, UniProt P06241)
T12 construct: purchased Eurofins DiscoverX KINOMEscan
Method in brief: as §2

WNK2 = target: T13, WNK2 (Homo sapiens, UniProt Q9Y3S1)
T13 construct: purchased Eurofins DiscoverX KINOMEscan
Method in brief: as §2

MAP3K3 = target: T14, MAP3K3 (Homo sapiens, UniProt Q99759)
T14 construct: purchased Eurofins DiscoverX KINOMEscan
Method in brief: as §2

MET = target: T15, MET (Homo sapiens, UniProt P08581)
T15 construct: purchased Eurofins DiscoverX KINOMEscan
Method in brief: as §2

CLK1 = target: T16, CLK1 (Homo sapiens, UniProt P49759)
T16 construct: purchased Eurofins DiscoverX KINOMEscan
Method in brief: as §1

ABL1-non-P = target: T17, ABL1-non-P (Homo sapiens, UniProt P00519)
T17 construct: purchased Eurofins DiscoverX KINOMEscan
Method in brief: as §2

PKN1 = target: T18, PKN1 (Homo sapiens, UniProt Q16512)
T18 construct: purchased Eurofins DiscoverX KINOMEscan
Method in brief: as §2

SRPK1 = target: T19, SRPK1 (Homo sapiens, UniProt Q96SB4)
T19 construct: purchased Eurofins DiscoverX KINOMEscan
Method in brief: as §1

SNARK = target: T20, SNARK (Homo sapiens, UniProt Q9H093)
T20 construct: purchased Eurofins DiscoverX KINOMEscan
Method in brief: as §2

MINK = target: T21, MINK (Homo sapiens, UniProt Q8N4C8)
T21 construct: purchased Eurofins DiscoverX KINOMEscan
Method in brief: as §1

GRK3 = target: T22, GRK3 (Homo sapiens, UniProt P35626)
T22 construct: purchased Eurofins DiscoverX KINOMEscan
Method in brief: as §2

KIT (V559D, T670I) = target: T23, KIT (V559D, T670I) (Homo sapiens, UniProt P10721, T670I/V559D)
T23 construct: purchased Eurofins DiscoverX KINOMEscan
Method in brief: as §2

LZK = target: T24, LZK (Homo sapiens, UniProt O43283)
T24 construct: purchased Eurofins DiscoverX KINOMEscan
Method in brief: as §2

S6K1 = target: T25, S6K1 (Homo sapiens, UniProt P23443)
T25 construct: purchased Eurofins DiscoverX KINOMEscan
Method in brief: as §2

NEK1 = target: T26, NEK1 (Homo sapiens, UniProt Q96PY6)
T26 construct: purchased Eurofins DiscoverX KINOMEscan
Method in brief: as §2

DCAMKL2 = target: T27, DCAMKL2 (Homo sapiens, UniProt Q8N568)
T27 construct: purchased Eurofins DiscoverX KINOMEscan
Method in brief: as §1

AURKB = target: T28, AURKB (Homo sapiens, UniProt Q96GD4)
T28 construct: purchased Eurofins DiscoverX KINOMEscan
Method in brief: as §2

IRAK3 = target: T29, IRAK3 (Homo sapiens, UniProt Q9Y616)
T29 construct: purchased Eurofins DiscoverX KINOMEscan
Method in brief: as §1

DDR1 = target: T30, DDR1 (Homo sapiens, UniProt Q08345)
T30 construct: purchased Eurofins DiscoverX KINOMEscan
Method in brief: as §1

[1] = target: T31, JAK1 (JH2domain-pseudokinase) (Homo sapiens, UniProt P23458)
T31 construct: JAK1 (JH2domain-pseudokinase); purchased Eurofins DiscoverX KINOMEscan
Method in brief: as §1

ALK (C1156Y) = target: T32, ALK (C1156Y) (Homo sapiens, UniProt Q9UM73, C1156Y)
T32 construct: purchased Eurofins DiscoverX KINOMEscan
Method in brief: as §2

CDKL2 = target: T33, CDKL2 (Homo sapiens, UniProt Q92772)
T33 construct: purchased Eurofins DiscoverX KINOMEscan
Method in brief: as §1

PYK2 = target: T34, PYK2 (Homo sapiens, UniProt Q14289)
T34 construct: purchased Eurofins DiscoverX KINOMEscan
Method in brief: as §2

PRKCI = target: T35, PRKCI (Homo sapiens, UniProt P41743)
T35 construct: purchased Eurofins DiscoverX KINOMEscan
Method in brief: as §2

SgK110 = target: T36, SgK110 (Homo sapiens, UniProt P0C264)
T36 construct: purchased Eurofins DiscoverX KINOMEscan
Method in brief: as §1

STK16 = target: T37, STK16 (Homo sapiens, UniProt O75716)
T37 construct: purchased Eurofins DiscoverX KINOMEscan
Method in brief: as §2

CDKL1 = target: T38, CDKL1 (Homo sapiens, UniProt Q00532)
T38 construct: purchased Eurofins DiscoverX KINOMEscan
Method in brief: as §2

IGF1R = target: T39, IGF1R (Homo sapiens, UniProt P08069)
T39 construct: purchased Eurofins DiscoverX KINOMEscan
Method in brief: as §1

PIKFYVE = target: T40, PIKFYVE (Homo sapiens, UniProt Q9Y2I7)
T40 construct: purchased Eurofins DiscoverX KINOMEscan
Method in brief: as §2

T27 sequence (Q8N568 whole entry): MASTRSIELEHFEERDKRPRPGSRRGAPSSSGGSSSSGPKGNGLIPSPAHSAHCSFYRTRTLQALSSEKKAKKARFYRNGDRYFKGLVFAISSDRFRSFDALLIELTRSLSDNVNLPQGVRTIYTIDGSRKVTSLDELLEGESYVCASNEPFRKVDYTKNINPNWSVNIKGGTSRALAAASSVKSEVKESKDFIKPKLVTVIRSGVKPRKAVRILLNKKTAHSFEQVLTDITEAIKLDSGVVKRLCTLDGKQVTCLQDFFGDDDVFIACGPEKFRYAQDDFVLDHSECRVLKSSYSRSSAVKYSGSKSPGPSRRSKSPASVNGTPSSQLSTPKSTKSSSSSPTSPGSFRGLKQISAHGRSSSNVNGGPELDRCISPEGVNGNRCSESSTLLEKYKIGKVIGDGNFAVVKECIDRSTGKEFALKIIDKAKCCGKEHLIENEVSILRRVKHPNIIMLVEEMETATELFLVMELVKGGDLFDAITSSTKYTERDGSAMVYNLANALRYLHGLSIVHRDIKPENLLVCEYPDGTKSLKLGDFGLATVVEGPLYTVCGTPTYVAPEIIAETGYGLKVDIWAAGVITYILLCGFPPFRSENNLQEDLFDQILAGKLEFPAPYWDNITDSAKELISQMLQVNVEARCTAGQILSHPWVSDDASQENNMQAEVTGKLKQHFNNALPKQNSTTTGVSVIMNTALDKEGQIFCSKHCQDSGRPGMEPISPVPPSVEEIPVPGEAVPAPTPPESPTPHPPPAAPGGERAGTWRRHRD
T17 sequence (P00519 whole entry): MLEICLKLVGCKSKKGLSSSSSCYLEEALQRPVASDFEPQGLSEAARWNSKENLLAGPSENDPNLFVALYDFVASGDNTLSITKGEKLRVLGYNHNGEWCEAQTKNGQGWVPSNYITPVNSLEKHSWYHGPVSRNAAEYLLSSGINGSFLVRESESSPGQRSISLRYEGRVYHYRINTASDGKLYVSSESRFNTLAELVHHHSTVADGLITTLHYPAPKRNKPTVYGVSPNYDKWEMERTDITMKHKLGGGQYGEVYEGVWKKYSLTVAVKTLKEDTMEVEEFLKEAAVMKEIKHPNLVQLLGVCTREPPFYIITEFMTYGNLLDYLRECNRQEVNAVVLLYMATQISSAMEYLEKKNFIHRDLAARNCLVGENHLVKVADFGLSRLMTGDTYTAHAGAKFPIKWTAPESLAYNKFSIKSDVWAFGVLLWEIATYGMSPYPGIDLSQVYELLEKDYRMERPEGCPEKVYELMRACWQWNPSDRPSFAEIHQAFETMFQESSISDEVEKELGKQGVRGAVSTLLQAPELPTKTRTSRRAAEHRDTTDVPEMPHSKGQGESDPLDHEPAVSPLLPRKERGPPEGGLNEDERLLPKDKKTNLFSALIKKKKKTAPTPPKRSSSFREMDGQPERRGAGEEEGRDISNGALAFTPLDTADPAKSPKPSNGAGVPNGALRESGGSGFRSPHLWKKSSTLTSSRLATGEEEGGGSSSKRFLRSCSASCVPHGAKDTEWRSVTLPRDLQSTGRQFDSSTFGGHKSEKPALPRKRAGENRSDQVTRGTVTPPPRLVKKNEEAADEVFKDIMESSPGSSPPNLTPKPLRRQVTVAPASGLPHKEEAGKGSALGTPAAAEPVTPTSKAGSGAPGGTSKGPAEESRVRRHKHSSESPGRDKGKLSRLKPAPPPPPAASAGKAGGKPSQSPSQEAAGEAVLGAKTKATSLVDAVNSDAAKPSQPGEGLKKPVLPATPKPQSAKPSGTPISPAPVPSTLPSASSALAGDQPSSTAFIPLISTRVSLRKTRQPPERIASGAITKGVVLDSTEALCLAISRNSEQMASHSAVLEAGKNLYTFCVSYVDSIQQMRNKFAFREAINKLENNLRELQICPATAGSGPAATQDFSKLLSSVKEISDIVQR
T1 sequence (Q9Y2H1 whole entry): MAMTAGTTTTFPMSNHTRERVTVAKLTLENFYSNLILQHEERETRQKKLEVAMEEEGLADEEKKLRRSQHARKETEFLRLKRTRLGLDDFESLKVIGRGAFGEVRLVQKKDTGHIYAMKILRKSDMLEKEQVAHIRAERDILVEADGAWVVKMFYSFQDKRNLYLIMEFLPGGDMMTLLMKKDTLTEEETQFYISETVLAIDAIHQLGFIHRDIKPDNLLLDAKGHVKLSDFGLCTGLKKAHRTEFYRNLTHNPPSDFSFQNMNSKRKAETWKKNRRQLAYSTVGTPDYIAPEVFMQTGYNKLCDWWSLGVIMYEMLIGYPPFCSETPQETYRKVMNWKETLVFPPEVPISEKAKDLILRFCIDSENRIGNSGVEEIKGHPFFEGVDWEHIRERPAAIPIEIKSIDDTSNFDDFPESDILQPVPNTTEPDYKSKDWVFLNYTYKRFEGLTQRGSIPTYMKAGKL
T8 sequence (P30530 26-894): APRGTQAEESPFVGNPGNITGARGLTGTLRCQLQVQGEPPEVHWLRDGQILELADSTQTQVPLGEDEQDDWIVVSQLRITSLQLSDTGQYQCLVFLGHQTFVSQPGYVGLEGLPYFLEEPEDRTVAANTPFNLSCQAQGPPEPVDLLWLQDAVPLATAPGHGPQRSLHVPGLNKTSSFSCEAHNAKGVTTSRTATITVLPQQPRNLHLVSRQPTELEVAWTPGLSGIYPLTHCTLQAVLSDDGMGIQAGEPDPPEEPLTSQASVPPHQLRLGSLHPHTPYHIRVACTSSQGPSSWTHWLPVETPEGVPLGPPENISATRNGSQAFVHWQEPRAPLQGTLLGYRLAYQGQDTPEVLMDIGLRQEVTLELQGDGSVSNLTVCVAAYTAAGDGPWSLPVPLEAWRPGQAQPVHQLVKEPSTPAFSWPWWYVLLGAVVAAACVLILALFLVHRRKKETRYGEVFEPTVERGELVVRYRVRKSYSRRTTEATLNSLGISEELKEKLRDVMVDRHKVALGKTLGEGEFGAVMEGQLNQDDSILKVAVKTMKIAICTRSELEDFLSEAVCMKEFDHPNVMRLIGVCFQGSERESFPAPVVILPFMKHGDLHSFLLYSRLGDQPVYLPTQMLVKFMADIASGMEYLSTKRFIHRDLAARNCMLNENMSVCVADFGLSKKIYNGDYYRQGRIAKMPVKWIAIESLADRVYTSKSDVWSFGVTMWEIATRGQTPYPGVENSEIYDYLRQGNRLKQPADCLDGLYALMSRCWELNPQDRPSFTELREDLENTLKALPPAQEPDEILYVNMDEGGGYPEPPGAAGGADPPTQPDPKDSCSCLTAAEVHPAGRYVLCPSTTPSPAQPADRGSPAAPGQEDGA
T5 sequence (Q07002 whole entry): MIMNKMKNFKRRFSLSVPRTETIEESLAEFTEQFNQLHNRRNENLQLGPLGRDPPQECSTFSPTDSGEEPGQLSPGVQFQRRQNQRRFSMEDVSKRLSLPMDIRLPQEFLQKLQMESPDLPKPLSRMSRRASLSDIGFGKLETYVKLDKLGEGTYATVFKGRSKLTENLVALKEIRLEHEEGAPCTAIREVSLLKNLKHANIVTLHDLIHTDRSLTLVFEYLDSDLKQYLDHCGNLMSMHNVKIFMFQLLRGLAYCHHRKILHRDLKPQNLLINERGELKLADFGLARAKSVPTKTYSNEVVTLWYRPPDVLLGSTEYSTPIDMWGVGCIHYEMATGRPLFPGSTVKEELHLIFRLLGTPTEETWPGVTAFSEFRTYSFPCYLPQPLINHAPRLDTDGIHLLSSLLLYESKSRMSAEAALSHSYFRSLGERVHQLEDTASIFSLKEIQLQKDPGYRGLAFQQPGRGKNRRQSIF
T36 sequence (P0C264 whole entry): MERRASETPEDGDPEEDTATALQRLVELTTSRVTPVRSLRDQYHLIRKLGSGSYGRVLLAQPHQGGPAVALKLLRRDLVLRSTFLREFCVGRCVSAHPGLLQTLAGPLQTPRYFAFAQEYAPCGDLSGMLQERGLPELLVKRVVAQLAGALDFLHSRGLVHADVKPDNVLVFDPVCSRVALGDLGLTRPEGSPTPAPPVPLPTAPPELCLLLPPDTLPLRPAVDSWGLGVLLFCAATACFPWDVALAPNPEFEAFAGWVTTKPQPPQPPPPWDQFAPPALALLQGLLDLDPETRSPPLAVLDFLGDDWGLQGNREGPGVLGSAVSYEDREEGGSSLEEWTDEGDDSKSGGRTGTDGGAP
T38 sequence (Q00532 whole entry): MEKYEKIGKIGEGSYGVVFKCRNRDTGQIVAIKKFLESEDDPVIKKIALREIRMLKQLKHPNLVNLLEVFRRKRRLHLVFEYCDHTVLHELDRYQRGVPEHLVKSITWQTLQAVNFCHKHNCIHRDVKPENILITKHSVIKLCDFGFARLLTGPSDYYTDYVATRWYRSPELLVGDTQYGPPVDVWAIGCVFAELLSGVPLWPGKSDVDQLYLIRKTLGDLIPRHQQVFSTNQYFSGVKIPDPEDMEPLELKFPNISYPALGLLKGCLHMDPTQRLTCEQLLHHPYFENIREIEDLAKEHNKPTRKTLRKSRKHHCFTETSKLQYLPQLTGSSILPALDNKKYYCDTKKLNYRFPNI
T28 sequence (Q96GD4 whole entry): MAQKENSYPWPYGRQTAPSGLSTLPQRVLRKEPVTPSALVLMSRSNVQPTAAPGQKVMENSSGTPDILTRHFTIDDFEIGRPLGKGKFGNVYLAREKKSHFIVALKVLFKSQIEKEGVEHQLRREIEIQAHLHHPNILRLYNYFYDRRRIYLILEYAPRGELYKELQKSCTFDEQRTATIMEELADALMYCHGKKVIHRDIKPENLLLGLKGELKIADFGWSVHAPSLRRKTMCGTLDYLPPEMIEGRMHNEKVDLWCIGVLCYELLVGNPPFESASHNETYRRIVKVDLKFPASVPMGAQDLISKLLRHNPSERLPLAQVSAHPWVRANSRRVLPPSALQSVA

Molecule `O=C1Nc2c(cc([N+](=O)[O-])c3c2CCCC3)C1=NO` [Compound 5d, 3-(Hydroxyimino)-5-nitro-1,3,6,7,8,9-hexahydro-2H-benzo[g]indol-2-one] has an inhibition at 10 µM (NDR2) of 13%, an inhibition at 10 µM (SLK) of 63% and an inhibition at 10 µM (LIMK1) of 0%. For the same molecule, the inhibition at 10 µM (PRKCQ) was 7%, the inhibition at 10 µM (PCTK3) was 0% and the inhibition at 10 µM (PFTK1) was 0%. For the same molecule, the inhibition at 10 µM (ARK5) was 24%, the inhibition at 10 µM (AXL) was 17% and the inhibition at 10 µM (LATS1) was 0%. The inhibition at 10 µM (DMPK) was 49%, the inhibition at 10 µM (STK35) was 1% and the inhibition at 10 µM (FYN) was 0%. For the same molecule, the inhibition at 10 µM (WNK2) was 0%, the inhibition at 10 µM (MAP3K3) was 68% and the inhibition at 10 µM (MET) was 63%. The inhibition at 10 µM (CLK1) was 85%, the inhibition at 10 µM (ABL1-non-P) was 54% and the inhibition at 10 µM (PKN1) was 9%. The inhibition at 10 µM (SRPK1) was 53%, the inhibition at 10 µM (SNARK) was 90% and the inhibition at 10 µM (MINK) was 70%. For the same molecule, the inhibition at 10 µM (GRK3) was 77%, the inhibition at 10 µM (KIT (V559D, T670I)) was 55% and the inhibition at 10 µM (LZK) was 0%. It also gave an inhibition at 10 µM (S6K1) of 51%, an inhibition at 10 µM (NEK1) of 31% and an inhibition at 10 µM (DCAMKL2) of 0%. It also gave an inhibition at 10 µM (AURKB) of 90.7%, an inhibition at 10 µM (IRAK3) of 32% and an inhibition at 10 µM (DDR1) of 0%. For the same molecule, the inhibition at 10 µM [1] was 89%, the inhibition at 10 µM (ALK (C1156Y)) was 43% and the inhibition at 10 µM (CDKL2) was 13%. The inhibition at 10 µM (PYK2) was 0%, the inhibition at 10 µM (PRKCI) was 49% and the inhibition at 10 µM (SgK110) was 0%. For the same molecule, the inhibition at 10 µM (STK16) was 72%, the inhibition at 10 µM (CDKL1) was 42% and the inhibition at 10 µM (IGF1R) was 0%. For the same molecule, the inhibition at 10 µM (PIKFYVE) was 28%.
